Assay results reported in patent publication EP0075167B1 (priority 1981, dated 1983).
Where two headings read alike, the source gives them in different places.

Columns and labels:
[1] = tested on: Phytophthora infestans; type: in vivo; conditions: systemic; preparation poured onto standard soil of young tomato plants; inoculated 3 days after treatment; 100% rel. humidity, ca. 20°C; evaluated 3 days after inoculation; compared with prior-art comparison substances
[2] = tested on: Phytophthora infestans; type: in vivo; conditions: protective; young tomato plants sprayed to dripping wet, then inoculated with spore suspension; 100% rel. humidity, ca. 20°C; evaluated 3 days after inoculation; compared with prior-art comparison substances

SMILES	Wirksamkeit [1]	Wirksamkeit [2]
C#CCOCC(=O)N(C=C)c1c(C)cccc1C [Beispiel 9, N-Propargyloxyacetyl-N-vinyl-2,6-dimethylanilin]	deutliche Überlegenheit in der Wirksamkeit gegenüber dem Stand der Technik	
C=C(C)N(C(=O)Cn1cncn1)c1c(C)cccc1C [Beispiel 8, N-(1-Methylvinyl)-N-(1,2,4-triazol-1-yl-acetyl)-2,6-dimethylanilin]		deutliche Überlegenheit in der Wirksamkeit gegenüber dem Stand der Technik
C=C(C)N(C(=O)COC)c1c(C)cccc1C [Beispiel 1, N-Me-^1 thoxyacetyl-N-(1-methylvinyl)-2,6-dimethylanilin]	deutliche Überlegenheit in der Wirksamkeit gegenüber dem Stand der Technik	deutliche Überlegenheit in der Wirksamkeit gegenüber dem Stand der Technik
